The results in this text go back to US12084472B2 (Ardelyx, Inc., priority 2015, dated 2024).

Structures are written as SMILES.

This assay deals with T1, human TGR5 (Homo sapiens, UniProt Q8TDU6).
T1 construct: expressed in transfected cells; host or cells: HEK293
T1 sequence (Q8TDU6 1-330): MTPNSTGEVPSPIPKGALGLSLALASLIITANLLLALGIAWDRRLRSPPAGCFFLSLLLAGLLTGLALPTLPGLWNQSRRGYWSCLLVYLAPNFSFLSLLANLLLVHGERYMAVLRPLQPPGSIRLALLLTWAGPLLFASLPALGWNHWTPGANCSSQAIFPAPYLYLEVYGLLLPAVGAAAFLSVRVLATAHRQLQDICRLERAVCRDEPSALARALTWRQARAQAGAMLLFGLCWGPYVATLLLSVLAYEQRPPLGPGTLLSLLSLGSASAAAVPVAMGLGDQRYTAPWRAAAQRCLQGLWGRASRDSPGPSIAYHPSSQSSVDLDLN
Briefly: Cell-based TGR5 assay (cAMP generation, HTRF). As to conditions: HEK293 cells stably transfected with human TGR5; cAMP by HTRF; 30 minutes at 37° C.; read-out: pEC50 Human TGR5 (converted). Here is the method:
A primary cell-based assay utilized HEK293 cells stably transfected with a gene encoding human TGR5. Cells were treated with candidate TGR5 activators and assessed for increased intercellular levels of cAMP.
TGR5-mediated cAMP generation was measured using a homogeneous time resolved fluorescence (HTRF) detection method (Cisbio). Test compounds were dissolved in DMSO to a final concentration of 10 mM. Serial 3-fold dilutions of the stock solution were made in DMSO, and these solutions were diluted 100-fold into Hanks Balanced Salt Solution supplemented with 10 mM HEPES pH 7.4, 0.003% Tween 20 and 0.5 mM isobutyl methylxanthine. Five microliters of diluted test compounds were added to wells of a black 384 well plate.
Cells grown overnight at 37° C./5% CO2 were harvested and resuspended in Hanks Balanced Salt Solution containing 10 mM HEPES to a concentration of […]. Five microliters (2500 cells) were dispensed into each well of the 384 well plate containing compound dilutions and incubated at 37° C. for 30 minutes. Each compound was tested in duplicate at 12 concentrations ranging from 0.05 nM to 10 μM.
Following incubation with test compounds, cAMP was detected through the successive addition of 5 μL each of cAMP labeled with the modified allophyocyanin dye d2 (cAMP-d2) and cryptate-labeled anti-cAMP in lysis buffer, and reading HTRF per the manufacturer's instructions.
A standard curve was used to convert the raw HTRF data into [cAMP]. The concentration of cAMP was plotted against log [test compound] and the resulting curves were fit to a 3-parameter logistical equation using GraphPad Prism to determine pEC50 (the negative log of the EC50) and the magnitude of the response.
Background: Time-resolved FRET reads energy transfer from a long-lived donor to a nearby acceptor.
`CN(C[C@H](O)[C@@H](O)[C@H](O)[C@H](O)CO)C(=O)CCCCc1ccc(Cl)c(CNC2(c3cnccc3-c3ccccc3OC3CC3)CC2)c1` (stereo in doubt) [Compound I-234, 5-{4-chloro-3-[({1-[4-(2-cyclopropoxyphenyl)pyridin-3-yl]cyclopropyl}amino)methyl]phenyl}-N-methyl-N-[(2S,3R,4R,5R)-2,3,4,5,6-pentahydroxyhexyl]pentanamide]: the EC50 is less than 100 nM.
With `CC(CCCC(=O)N(CCN(C)C)C[C@H](O)[C@@H](O)[C@H](O)[C@H](O)CO)c1ccc(Cl)c(CNC2(c3cnccc3-c3ccccc3OC3CC3)CC2)c1` (stereo partly drawn) [Compound I-337, 5-{4-chloro-3-[({1-[4-(2-cyclopropoxyphenyl)pyridin-3-yl]cyclopropyl}amino)methyl]phenyl}-N-[^2-(dimethylamino)ethyl]-N-[(2S,3R,4R,5R)-2,3,4,5,6-pentahydroxyhexyl]hexanamide], the EC50 was 126 to 1000 nM.
Take `Cc1cc(COC2(c3cnccc3-c3ccccc3OC3CC3)CC2)c(Cl)cc1CCCCNC(=O)[C@@H](O)[C@@H](O)[C@H](O)[C@@H](O)CN1CCOCC1` (stereo in doubt) [Compound I-176, (2S,3S,4R,5S)-N-{4-[5-chloro-4-({1-[4-(2-cyclopropoxyphenyl)pyridin-3-yl]cyclopropoxy}methyl)-2-methylphenyl]butyl}-2,3,4,5-tetrahydroxy-6-(morpholin-4-yl)hexanamide]: the EC50 was less than 100 nM.
The value for `CN(CCCCNS(=O)(=O)c1ccc(Cl)c(COC2(c3cnccc3-c3ccccc3OC3CC3)CC2)c1)C(=O)[C@@H](O)[C@@H](O)[C@H](O)[C@@H](O)CO` [Compound I-460, (2S,3S,4R,5S)-N-{4-[4-chloro-3-({1-[4-(2-cyclopropoxyphenyl)pyridin-3-yl]cyclopropoxy}methyl)benzenesulfonamido]butyl}-2,3,4,5,6-pentahydroxy-N-methylhexanamide] was less than 100 nM; that for `Cc1ccc(C(C)CCCNC(=O)NC[C@H](O)[C@@H](O)[C@H](O)[C@H](O)CO)cc1CNC1(c2cnccc2-c2ccccc2OC2CC2)CC1` (stereo partly drawn) [Compound I-271, 1-(4-{3-[({l-[4-(2-cyclopropoxyphenyl)pyridin-3-yl]cyclopropyl}amino)methyl]-4-methylphenyl}pentyl)-3-[(2S,3R,4R,5R)-2,3,4,5,6-pentahydroxyhexyl]urea] was less than 100 nM.
For the compound `O=C1O[C@H]([C@@H](O)[C@H](O)[C@H](O)CO)CN1CCCCc1cc(Cl)c(COC2(c3cnccc3-c3ccccc3OC3CC3)CC2)cc1Cl` [Compound I-77, (5S)-3-{4-[2,5-dichloro-4-({1-[4-(2-cyclopropoxyphenyl)pyridin-3-yl]cyclopropoxy}methyl)phenyl]butyl}-5-[(1S,2R,3R)-1,2,3,4-tetrahydroxybutyl]-1,3-oxazolidin-2-one], the EC50 is less than 100 nM.
As for `CSc1ccccc1-c1ccncc1C1(NCc2cc(Cl)ccc2Cl)CC1` [Compound I-7, N-[(2,5-dichlorophenyl)methyl]-1-{4-[2-(methylsulfanyl)phenyl]pyridin-3-yl}cyclopropan-1-amine], the EC50 is 126 to 1000 nM.
On to `O=C(CCCCCCNS(=O)(=O)c1ccc(Cl)c(COC2(c3cnccc3-c3ccccc3OC3CC3)CC2)c1)NC[C@H](O)[C@@H](O)[C@H](O)[C@H](O)CO` [Compound I-432, 7-[4-chloro-3-({1-[4-(2-cyclopropoxyphenyl)pyridin-3-yl]cyclopropoxy}methyl)benzenesulfonamido]-N-[(2S,3R,4R,5R)-2,3,4,5,6-pentahydroxyhexyl]heptanamide], for which the EC50 is less than 100 nM.
Consider `C[C@H](CCCCNC(=O)N[C@@H](CO)[C@@H](O)[C@H](O)[C@H](O)CO)c1ccc(Cl)c(COC2(c3cnccc3-c3ccccc3OC3CC3)CC2)c1` (single isomer, unassigned) [Compound I-264], for which the EC50 is less than 100 nM.
The value for `COc1cc(C)c(CNC2(c3cnccc3-c3ccccc3OC3CC3)CC2)cc1C(C)C` [Compound I-38, 1-[4-(2-cyclopropoxyphenyl)pyridin-3-yl]-N-{[4-methoxy-2-methyl-5-(propan-2-yl)phenyl]methyl}cyclopropan-1-amine] was 126 to 1000 nM; that for `COCCN(C[C@H](O)[C@@H](O)[C@H](O)[C@H](O)CO)C(=O)CCCCc1cc(Cl)c(COC2(c3cnccc3-c3ccccc3OC3CC3)CC2)cc1Cl` [Compound I-127, 5-[2,5-dichloro-4-({1-[4-(2-cyclopropoxyphenyl)pyridin-3-yl]cyclopropoxy}methyl)phenyl]-N-(2-methoxyethyl)-N-[(2S,3R,4R,5R)-2,3,4,5,6-pentahydroxyhexyl]pentanamide] was less than 100 nM; that for `NC(=O)CCN(C[C@H](O)[C@@H](O)[C@H](O)[C@H](O)CO)C(=O)CCCCc1cc(Cl)c(COC2(c3cnccc3-c3ccccc3OC3CC3)CC2)cc1Cl` [Compound I-223, N-(2-carbamoylethyl)-5-[2,5-dichloro-4-({1-[4-(2-cyclopropoxyphenyl)pyridin-3-yl]cyclopropoxy}methyl)phenyl]-N-[(2S,3R,4R,5R)-2,3,4,5,6-pentahydroxyhexyl]pentanamide] was less than 100 nM.
Regarding `CCN(C[C@H](O)[C@@H](O)[C@H](O)[C@H](O)CO)C(=O)CCCSc1ccc(Cl)c(COC2(c3cnccc3-c3ccccc3OC3CC3)CC2)c1` [Compound I-659, 4-{[4-chloro-3-({1-[4-(2-cyclopropoxyphenyl)pyridin-3-yl]cyclopropoxy}methyl)phenyl]sulfanyl}-N-ethyl-N-[(2S,3R,4R,5R)-2,3,4,5,6-pentahydroxyhexyl]butanamide], the EC50 is less than 100 nM.
On to `C=C(CCCNC(=O)NC[C@H](O)[C@@H](O)[C@H](O)[C@H](O)CO)c1ccc(Cl)c(CNC2(c3cnccc3-c3ccccc3OC3CC3)CC2)c1` [Compound I-383, 1-(4-{4-chloro-3-[({1-[4-(2-cyclopropoxyphenyl)pyridin-3-yl]cyclopropyl}amino)methyl]phenyl}pent-4-en-1-yl)-3-[(2S,3R,4R,5R)-2,3,4,5,6-pentahydroxyhexyl]urea], for which the EC50 is less than 100 nM.
Turning to `CC(CCCN(CC1CCOCC1)C(=O)[C@@H](O)[C@@H](O)[C@H](O)[C@@H](O)CO)c1ccc(Cl)c(CNC2(c3cnccc3-c3ccccc3OC3CC3)CC2)c1` (stereo partly drawn) [Compound I-287, (2S,3S,4R,5S)-N-(4-{4-chloro-3-[({1-[4-(2-cyclopropoxyphenyl)pyridin-3-yl]cyclopropyl}amino)methyl]phenyl}pentyl)-2,3,4,5,6-pentahydroxy-N-(oxan-4-ylmethyl)hexanamide], the EC50 was less than 100 nM.
The result for `COCCN(CCCC(C)c1ccc(Cl)c(CNC2(c3cnccc3-c3ccccc3OC3CC3)CC2)c1)C(=O)[C@@H](O)[C@@H](O)[C@H](O)[C@@H](O)CO` (stereo partly drawn) [Compound I-282, (2S,3S,4R,5S)-N-(4-{4-chloro-3-[({1-[4-(2-cyclopropoxyphenyl)pyridin-3-yl]cyclopropyl}amino)methyl]phenyl}pentyl)-2,3,4,5,6-pentahydroxy-N-(2-methoxyethyl)hexanamide] reads less than 100 nM.
With `CN(C[C@H](O)[C@@H](O)[C@H](O)[C@H](O)CO)C(=O)NS(=O)(=O)NCCCCc1cc(Cl)c(COC2(c3cnccc3-c3ccccc3OC3CC3)CC2)cc1Cl` (stereo in doubt) [Compound I-194, 1-({4-[2,5-dichloro-4-({1-[4-(2-cyclopropoxyphenyl)pyridin-3-yl]cyclopropoxy}methyl)phenyl]butyl}sulfamoyl)-3-methyl-3-[(2S,3R,4R,5R)-2,3,4,5,6-pentahydroxyhexyl]urea], the EC50 is less than 100 nM.
As for `COc1cc(Cl)c(COC2(c3cnccc3-c3ccccc3OC3CC3)CC2)cc1S(=O)(=O)N(C)C` [Compound I-730, 4-chloro-5-([1-[4-(2-cyclopropoxyphenyl)pyridin-3-yl]cyclopropoxy]methyl)-2-methoxy-N,N-dimethylbenzene-1-sulfonamide], the EC50 was less than 100 nM.
The value for `O=C([C@@H](O)[C@@H](O)[C@H](O)[C@@H](O)CO)N(CCCCc1cc(Cl)c(COC2(c3cnccc3-c3ccccc3OC3CC3)CC2)cc1Cl)C1CCOCC1` [Compound I-216, (2S,3S,4R,5S)-N-{4-[2,5-dichloro-4-({1-[4-(2-cyclopropoxyphenyl)pyridin-3-yl]cyclopropoxy}methyl)phenyl]butyl}-2,3,4,5,6-pentahydroxy-N-(oxan-4-yl)hexanamide] was 126 to 1000 nM.
